Measurements from publication PMC3247980 (The Journal of Biological Chemistry, 2011).

Key:
[1] = molecular target: T1, PfFT1 (Plasmodium falciparum, UniProt Q8IBB7); experiment: [3H]folinic acid uptake, Xenopus oocytes; type: cell-based; conditions: labelled compound, 40 min, pH 7.4, room temperature
T1 sequence (Q8IBB7 1-505): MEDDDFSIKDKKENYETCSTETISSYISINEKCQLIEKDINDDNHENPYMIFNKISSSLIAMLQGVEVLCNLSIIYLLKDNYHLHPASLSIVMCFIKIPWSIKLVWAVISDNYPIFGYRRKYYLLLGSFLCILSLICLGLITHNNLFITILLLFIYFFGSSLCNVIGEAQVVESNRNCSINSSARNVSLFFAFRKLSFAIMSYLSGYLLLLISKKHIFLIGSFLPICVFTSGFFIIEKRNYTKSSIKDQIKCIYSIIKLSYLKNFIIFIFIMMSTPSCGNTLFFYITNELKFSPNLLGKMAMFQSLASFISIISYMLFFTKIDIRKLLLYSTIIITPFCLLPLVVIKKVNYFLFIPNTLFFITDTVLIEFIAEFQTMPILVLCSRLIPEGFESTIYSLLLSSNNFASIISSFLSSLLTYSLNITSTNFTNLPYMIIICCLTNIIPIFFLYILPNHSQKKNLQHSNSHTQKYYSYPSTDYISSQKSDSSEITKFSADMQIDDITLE

[2] = molecular target: T2, PfFT2 (Plasmodium falciparum, UniProt Q8IIK1); experiment: [3H]folinic acid uptake, Xenopus oocytes; type: cell-based; conditions: labelled compound, 40 min, pH 7.4, room temperature
T2 sequence (Q8IIK1 1-455): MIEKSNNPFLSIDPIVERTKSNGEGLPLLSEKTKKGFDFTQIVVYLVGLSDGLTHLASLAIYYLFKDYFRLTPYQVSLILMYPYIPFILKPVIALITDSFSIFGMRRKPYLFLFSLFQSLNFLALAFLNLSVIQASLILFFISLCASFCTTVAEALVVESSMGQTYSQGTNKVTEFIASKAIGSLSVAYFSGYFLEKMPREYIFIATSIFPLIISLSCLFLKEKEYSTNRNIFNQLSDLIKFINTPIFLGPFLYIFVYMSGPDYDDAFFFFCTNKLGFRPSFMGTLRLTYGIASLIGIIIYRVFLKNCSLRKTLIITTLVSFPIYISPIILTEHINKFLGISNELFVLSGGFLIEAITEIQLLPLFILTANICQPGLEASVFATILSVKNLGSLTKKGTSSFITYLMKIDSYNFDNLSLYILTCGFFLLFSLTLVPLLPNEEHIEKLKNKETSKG

With `Nc1nc(=O)c2c([nH]1)NCC(CNc1ccc(C(=O)N[C@@H](CCC(=O)O)C(=O)O)cc1)N2C=O` (mixture of isomers) [folinic acid] the “[3H]folinic acid uptake, Xenopus oocytes” value [1] was “cRNA from PfFT1 and PfFT2 showed significantly higher uptake of [^3H]folinic acid” and the “[3H]folinic acid uptake, Xenopus oocytes” value [2] was “cRNA from PfFT1 and PfFT2 showed significantly higher uptake of [^3H]folinic acid”.
